Article PMC7587432, “IP7-SPX Domain Interaction Controls Fungal Virulence by Stabilizing Phosphate Signaling Machinery” (mBio, 2020)

Target: T1, Pho81 (Pho81SPX-GFP; CnPho81) (Cryptococcus neoformans, UniProt J9VLD1)
T1 construct: gene CNAG_02541; full-length Pho81 (N-terminal SPX, ankyrin repeat and GDE domains) with C-terminal GFP, expressed from the GDE2 promoter in C. neoformans H99; whole cell lysate, endogenous Pho80/Pho85/Pcl6/7 present
Assay: affinity capture from cell lysate on 5-PCP-IP5-conjugated resin, anti-GFP Western blot
Assay type: biochemical
Conditions: binds; resin-immobilised analog of 5-PP-IP5; Pi-conjugated resin as control; 50 mM Tris pH 7.5, 150 mM NaCl, 1 mM EDTA, 4 °C, 2 h; SPX domain lysine surface cluster

`O=P(O)(O)CP(=O)(O)O[C@H]1[C@H](OP(=O)(O)O)[C@@H](OP(=O)(O)O)[C@@H](OP(=O)(O)O)[C@@H](OP(=O)(O)O)[C@@H]1OP(=O)(O)O` [5-PCP-IP5] was tested, and the “affinity capture from cell lysate on 5-PCP-IP5-conjugated resin, anti-GFP Wester” value was “native Pho81 binds to the 5-PCP-IP5, but not to the Pi, resin”.
